{
  "source": "patent US20100047907A1",
  "about": "“METHODS OF TRANSPORTING EPITHELIAL CELL MONOLAYERS” (Absorption System Group LLC, priority 2008, published 2010)",
  "key": {"[1]": {"target": "T1, P-glycoprotein (PGP) (Homo sapiens, UniProt P08183)", "T1 sequence (P08183 whole entry)": "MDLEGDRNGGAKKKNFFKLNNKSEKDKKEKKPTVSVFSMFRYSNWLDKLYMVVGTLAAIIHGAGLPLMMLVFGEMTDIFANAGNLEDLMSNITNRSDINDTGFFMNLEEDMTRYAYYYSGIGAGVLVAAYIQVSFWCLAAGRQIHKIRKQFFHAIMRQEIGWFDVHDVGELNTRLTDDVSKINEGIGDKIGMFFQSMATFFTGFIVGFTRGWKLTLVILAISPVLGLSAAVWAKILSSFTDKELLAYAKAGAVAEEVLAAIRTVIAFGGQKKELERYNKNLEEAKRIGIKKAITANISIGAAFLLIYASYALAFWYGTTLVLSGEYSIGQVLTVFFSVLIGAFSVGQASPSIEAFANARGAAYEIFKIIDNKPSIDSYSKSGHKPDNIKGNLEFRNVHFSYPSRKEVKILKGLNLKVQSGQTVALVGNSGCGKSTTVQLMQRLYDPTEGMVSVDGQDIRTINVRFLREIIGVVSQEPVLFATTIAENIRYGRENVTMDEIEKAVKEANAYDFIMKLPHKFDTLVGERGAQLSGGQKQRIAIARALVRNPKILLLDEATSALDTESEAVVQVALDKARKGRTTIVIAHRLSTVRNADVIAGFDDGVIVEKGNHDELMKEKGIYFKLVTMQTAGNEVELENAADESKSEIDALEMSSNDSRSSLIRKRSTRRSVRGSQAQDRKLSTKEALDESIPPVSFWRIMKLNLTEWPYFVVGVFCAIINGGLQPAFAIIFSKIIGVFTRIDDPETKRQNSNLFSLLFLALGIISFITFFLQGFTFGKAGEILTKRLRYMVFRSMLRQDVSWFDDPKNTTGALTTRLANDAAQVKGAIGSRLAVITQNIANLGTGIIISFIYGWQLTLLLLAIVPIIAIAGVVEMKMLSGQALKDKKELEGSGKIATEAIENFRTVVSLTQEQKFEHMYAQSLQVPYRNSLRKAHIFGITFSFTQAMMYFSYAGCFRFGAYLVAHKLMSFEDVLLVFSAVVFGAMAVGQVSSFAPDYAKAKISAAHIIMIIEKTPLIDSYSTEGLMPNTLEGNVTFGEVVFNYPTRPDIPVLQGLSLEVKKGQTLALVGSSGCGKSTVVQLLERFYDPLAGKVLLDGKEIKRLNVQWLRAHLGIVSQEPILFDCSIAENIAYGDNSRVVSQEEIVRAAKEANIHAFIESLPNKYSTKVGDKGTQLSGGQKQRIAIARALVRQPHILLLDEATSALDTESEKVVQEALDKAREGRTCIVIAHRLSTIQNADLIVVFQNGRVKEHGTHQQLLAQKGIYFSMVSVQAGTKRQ", "assay": "in vitro", "conditions": "Caco-2, pH 7.4, Pgp transport"}, "[2]": {"target": "T1, P-glycoprotein (PGP)", "assay": "Bidirectional digoxin Pgp transport across C2BBe1 monolayers", "conditions": "Caco-2, pH 7.4"}, "[3]": {"target": "T2, PGP (Homo sapiens, UniProt P08183)", "T2 sequence (P08183 whole entry)": "as above", "assay": "Bidirectional digoxin Pgp transport across Caco-2 monolayers", "conditions": "Caco-2, pH 7.4"}, "[4]": {"system": "P-gp", "assay": "Bidirectional digoxin Pgp transport across MDCK monolayers", "conditions": "dog, MDCK-MDR1, pH 7.4, Pgp transport"}, "[5]": {"target": "P-gp (PGP) (Homo sapiens, UniProt P08183)", "sequence (P08183 whole entry)": "as above", "assay": "in vitro", "conditions": "Caco-2, pH 7.4, Pgp transport, Papp B->A"}, "[6]": {"target": "T2, PGP", "assay": "in vitro", "conditions": "Caco-2, pH 7.4, Pgp transport"}, "[7]": {"system": "human P-glycoprotein (PGP)", "assay": "Bidirectional digoxin Pgp transport across MDR-MDCK monolayers", "conditions": "dog, MDCK-MDR1, pH 7.4, Pgp transport; for Papp A→B at 2 h, 10 µM / Papp B→A at 2 h, 10 µM: assayed day 12"}, "[8]": {"system": "P-gp", "assay": "Bidirectional digoxin Pgp transport across MDR-MDCK monolayers", "conditions": "human, MDCK-MDR1, pH 7.4, Pgp transport"}, "[9]": {"system": "Caco-2 cell monolayers", "assay": "Sodium butyrate supplementation of medium of Caco-2 monolayers, 7-day culture procedure, simulated transport", "format": "cell-based, human", "method": "Caco-2 cells were used to assess whether cells grown using the 7-day culture procure were likely to yield intact cell monolayers following shipment. To shorten the period required for cell monolayer formation the seeding density for each Transwell® insert was increased to 240,000 cells per cm^2 (rather than 60,000 cells/cm^2). Once plated, the cells were incubated overnight at 37° C. with 0.5 mL of medium (90% Dulbecco's Modified Eagle Medium supplemented with 10% fetal bovine serum) in the apical chamber and 1.5 mL of medium in the basolateral chamber to allow for attachment to the Transwell®. Adherent cells were provided with fresh cell culture medium for the next two days. The cells were then left on a laboratory bench, at room temperature, overnight to simulate transport conditions. In order to simulate receipt of transported cells, the next day the Transwell® inserts were removed from tissue culture plates containing 0.75% agarose medium and moved to a new plate containing fresh tissue culture medium. The cell monolayers were then incubated for 3 or 6 days under normal growth conditions before they were tested for membrane integrity and permeability. […]"}, "[10]": {"assay": "in vitro", "conditions": "human, Caco-2, pH 7.4, Passive diffusion"}, "[11]": {"conditions": "Table 9 control, assayed day 10"}, "[12]": {"conditions": "Table 9 shipped, 0.75% agarose media basolateral only, assayed day 10"}, "[13]": {"conditions": "Table 12 control, 7 d in culture"}, "[14]": {"conditions": "Table 12 shipped overnight by air, 0.75% agarose medium basolateral only, 9 d in culture"}, "[15]": {"conditions": "Table 5 control, not shipped, assayed 7 D"}, "[16]": {"conditions": "Table 6 shipped at 5 D, 0.5% agarose medium basolateral only, assayed 10 D"}, "[17]": {"conditions": "Table 7 shipped at day 6, 0.5% agarose medium basolateral only"}, "[18]": {"conditions": "shipped, 0.5% agarose medium apical only, Table 5 lower block c1, assayed 7 D"}, "[19]": {"conditions": "shipped, 0.5% agarose medium apical only, Table 5 lower block c2, assayed 7 D"}, "[20]": {"conditions": "shipped, 0.5% agarose medium apical only, Table 5 upper block c1, assayed 7 D"}, "[21]": {"conditions": "shipped, 0.5% agarose medium apical only, Table 5 upper block c2, assayed 7 D"}, "[22]": {"conditions": "shipped, 0.5% agarose medium apical only, Table 5 upper block c4, assayed 7 D"}, "[23]": {"conditions": "shipped, 0.5% agarose medium basolateral only, assayed 7 D"}, "[24]": {"conditions": "Table 10 control, assayed day 12"}, "[25]": {"conditions": "Table 13 MDR1-MDCK control, 7 d in culture"}, "[26]": {"conditions": "Table 13 MDR1-MDCK shipped overnight by air, 0.75% agarose medium basolateral only, 10 d in culture"}, "[27]": {"conditions": "air cargo shipped (three days in transit), 0.75% agarose media basolateral only, assayed day 12"}},
  "data": [
    {"smiles": "C[C@H]1O[C@@H](O[C@H]2[C@@H](O)C[C@H](O[C@H]3[C@@H](O)C[C@H](O[C@H]4CC[C@@]5(C)[C@H](CC[C@@H]6[C@@H]5C[C@@H](O)[C@]5(C)[C@@H](C7=CC(=O)OC7)CC[C@]65O)C4)O[C@@H]3C)O[C@@H]2C)C[C@H](O)[C@@H]1O", "note": "[Digoxin, digoxin]", "values": [
      {"measurement": "Papp B→A at 2 h, 10 µM", "setting": "[1]", "result": 6.86, "unit": "×10⁻⁶ cm/s"},
      {"measurement": "Papp B→A at 2 h, 10 µM", "setting": "[2]", "result": 5.67, "unit": "×10⁻⁶ cm/s"},
      {"measurement": "Papp A→B at 120 min, 10 µM", "setting": "[3]", "result": 0.66, "unit": "×10⁻⁶ cm/s"},
      {"measurement": "Papp A→B at 2 h, 10 µM", "setting": "[4]; [11]", "result": 0.2, "unit": "×10⁻⁶ cm/s"},
      {"measurement": "Papp A→B at 2 h, 10 µM", "setting": "[4]; [12]", "result": 0.04, "unit": "×10⁻⁶ cm/s"},
      {"measurement": "Papp A→B at 2 h, 10 µM", "setting": "[4]; [13]", "result": 0.12, "unit": "×10⁻⁶ cm/s"},
      {"measurement": "Papp A→B at 2 h, 10 µM", "setting": "[4]; [14]", "result": 0.16, "unit": "×10⁻⁶ cm/s"},
      {"measurement": "Papp B→A at 2 h, 10 µM", "setting": "[4]; [11]", "result": 0.94, "unit": "×10⁻⁶ cm/s"},
      {"measurement": "Papp B→A at 2 h, 10 µM", "setting": "[4]; [12]", "result": 3.83, "unit": "×10⁻⁶ cm/s"},
      {"measurement": "Papp B→A at 2 h, 10 µM", "setting": "[4]; [13]", "result": 6.92, "unit": "×10⁻⁶ cm/s"},
      {"measurement": "Papp B→A at 2 h, 10 µM", "setting": "[4]; [14]", "result": 7.44, "unit": "×10⁻⁶ cm/s"},
      {"measurement": "Papp B→A at 120 min, 10 µM", "setting": "[5]", "result": 21.9, "unit": "×10⁻⁶ cm/s"},
      {"measurement": "Papp A→B at 2 h, 10 µM", "setting": "[6]; Papp A->B", "result": 1.13, "unit": "×10⁻⁶ cm/s"},
      {"measurement": "Papp B→A at 120 min, 10 µM", "setting": "[6]; Papp B->A", "result": 21.6, "unit": "×10⁻⁶ cm/s"},
      {"measurement": "Papp B→A at 2 h, 10 µM", "setting": "[6]; Papp B->A", "result": 15.2, "unit": "×10⁻⁶ cm/s"},
      {"measurement": "Papp A→B at 120 min, 10 µM", "setting": "[7]; [15]", "result": 0.1, "unit": "×10⁻⁶ cm/s"},
      {"measurement": "Papp A→B at 120 min, 10 µM", "setting": "[7]; Table 6 control, assayed 10 D", "result": 0.15, "unit": "×10⁻⁶ cm/s"},
      {"measurement": "Papp A→B at 120 min, 10 µM", "setting": "[7]; [16]", "result": 0.21, "unit": "×10⁻⁶ cm/s"},
      {"measurement": "Papp A→B at 2 h, 10 µM", "setting": "[7]; Table 7 control", "result": 0.15, "unit": "×10⁻⁶ cm/s"},
      {"measurement": "Papp A→B at 2 h, 10 µM", "setting": "[7]; [17]", "result": 0.09, "unit": "×10⁻⁶ cm/s"},
      {"measurement": "Papp A→B at 120 min, 10 µM", "setting": "[7]; [18]", "result": 0.18, "unit": "×10⁻⁶ cm/s"},
      {"measurement": "Papp A→B at 120 min, 10 µM", "setting": "[7]; [19]", "result": 0.09, "unit": "×10⁻⁶ cm/s"},
      {"measurement": "Papp A→B at 120 min, 10 µM", "setting": "[7]; [20]", "result": 0.11, "unit": "×10⁻⁶ cm/s"},
      {"measurement": "Papp A→B at 120 min, 10 µM", "setting": "[7]; [21]", "result": 0.06, "unit": "×10⁻⁶ cm/s"},
      {"measurement": "Papp A→B at 120 min, 10 µM", "setting": "[7]; [22]", "result": 0.07, "unit": "×10⁻⁶ cm/s"},
      {"measurement": "Papp A→B at 120 min, 10 µM", "setting": "[7]; [23]", "result": 0.06, "unit": "×10⁻⁶ cm/s"},
      {"measurement": "Papp B→A at 120 min, 10 µM", "setting": "[7]; [15]", "result": 6.7, "unit": "×10⁻⁶ cm/s"},
      {"measurement": "Papp B→A at 120 min, 10 µM", "setting": "[7]; Table 6 control, assayed 10 D", "result": 10.8, "unit": "×10⁻⁶ cm/s"},
      {"measurement": "Papp B→A at 120 min, 10 µM", "setting": "[7]; [16]", "result": 9.14, "unit": "×10⁻⁶ cm/s"},
      {"measurement": "Papp B→A at 2 h, 10 µM", "setting": "[7]; Table 7 control", "result": 6.37, "unit": "×10⁻⁶ cm/s"},
      {"measurement": "Papp B→A at 2 h, 10 µM", "setting": "[7]; [17]", "result": 6.4, "unit": "×10⁻⁶ cm/s"},
      {"measurement": "Papp B→A at 120 min, 10 µM", "setting": "[7]; [18]", "result": 7.05, "unit": "×10⁻⁶ cm/s"},
      {"measurement": "Papp B→A at 120 min, 10 µM", "setting": "[7]; [19]", "result": 8.27, "unit": "×10⁻⁶ cm/s"},
      {"measurement": "Papp B→A at 120 min, 10 µM", "setting": "[7]; [20]", "result": 5.24, "unit": "×10⁻⁶ cm/s"},
      {"measurement": "Papp B→A at 120 min, 10 µM", "setting": "[7]; [21]", "result": 6.19, "unit": "×10⁻⁶ cm/s"},
      {"measurement": "Papp B→A at 120 min, 10 µM", "setting": "[7]; shipped, 0.5% agarose medium apical only, Table 5 upper block c3, assayed 7 D", "result": 4.65, "unit": "×10⁻⁶ cm/s"},
      {"measurement": "Papp B→A at 120 min, 10 µM", "setting": "[7]; [22]", "result": 6.39, "unit": "×10⁻⁶ cm/s"},
      {"measurement": "Papp B→A at 120 min, 10 µM", "setting": "[7]; [23]", "result": 6.09, "unit": "×10⁻⁶ cm/s"},
      {"measurement": "Papp A→B at 2 h, 10 µM", "setting": "[8]; [24]", "result": 0.04, "unit": "×10⁻⁶ cm/s"},
      {"measurement": "Papp A→B at 2 h, 10 µM", "setting": "[8]; [25]", "result": 0.02, "unit": "×10⁻⁶ cm/s"},
      {"measurement": "Papp A→B at 2 h, 10 µM", "setting": "[8]; [26]", "result": 0.09, "unit": "×10⁻⁶ cm/s"},
      {"measurement": "Papp A→B at 2 h, 10 µM", "setting": "[8]; [27]", "result": 0.07, "unit": "×10⁻⁶ cm/s"},
      {"measurement": "Papp B→A at 2 h, 10 µM", "setting": "[8]; [24]", "result": 10.9, "unit": "×10⁻⁶ cm/s"},
      {"measurement": "Papp B→A at 2 h, 10 µM", "setting": "[8]; [25]", "result": 12.6, "unit": "×10⁻⁶ cm/s"},
      {"measurement": "Papp B→A at 2 h, 10 µM", "setting": "[8]; [26]", "result": 20.1, "unit": "×10⁻⁶ cm/s"},
      {"measurement": "Papp B→A at 2 h, 10 µM", "setting": "[8]; [27]", "result": 13.1, "unit": "×10⁻⁶ cm/s"}
    ]},
    {"smiles": "CCCC(=O)[O-].[Na+]", "note": "[sodium butyrate]", "values": [
      {"measurement": "effect on cell monolayer integrity and permeability following transport", "setting": "[9]; 4 mM in medium for three days prior to simulated transport, not following transport", "result": "adversely affects monolayer integrity and permeability following transport"},
      {"measurement": "effect on cell monolayer integrity or permeability", "setting": "[9]; added to tissue culture medium following simulated transport, not prior to transport", "result": "does not disrupt cell monolayer integrity or permeability"}
    ]},
    {"smiles": "CC(C)NCC(O)COc1cccc2[nH]ccc12", "note": "(stereo not shown) [Pindolol, pindolol]", "values": [
      {"measurement": "Papp A→B at 2 h", "setting": "[10]", "result": 14.2, "unit": "×10⁻⁶ cm/s"}
    ]}
  ]
}
